This is an account of results in paper PMC2817709, “A Novel High-Affinity Sucrose Transporter Is Required for Virulence of the Plant Pathogen Ustilago maydis” (PLoS Biology, 2010).

The target in one data set is T1, Srt1 (Mycosarcoma maydis, UniProt A0A0D1E1N5).
T1 construct: gene UMAG_02374; full-length ORF, 546 residues, 12 predicted TMDs, untagged in vector NEV-E; expressed in invertase-deficient S. cerevisiae SEY2102
The data set can be described thus: competition with […]-sucrose uptake in srt1-expressing S. cerevisiae. In kind it is cell-based. The note with it: 10 mM competitor (100-fold excess) against 0.1 mM 14C-sucrose; pH 5.0, 29°C.

For data set [1], the system named is OC[C@H]1O[C@@](CO)(O[C@H]2O[C@H](CO)[C@@H](O)[C@H](O)[C@H]2O)[C@@H](O)[C@@H]1O. Kind of data set: cells, lysate or membranes. To be noted: pH 5.0, 50 mM Na-phosphate, 29°C, H+ symport, labelled compound.

T1 sequence (A0A0D1E1N5 entry or part of it): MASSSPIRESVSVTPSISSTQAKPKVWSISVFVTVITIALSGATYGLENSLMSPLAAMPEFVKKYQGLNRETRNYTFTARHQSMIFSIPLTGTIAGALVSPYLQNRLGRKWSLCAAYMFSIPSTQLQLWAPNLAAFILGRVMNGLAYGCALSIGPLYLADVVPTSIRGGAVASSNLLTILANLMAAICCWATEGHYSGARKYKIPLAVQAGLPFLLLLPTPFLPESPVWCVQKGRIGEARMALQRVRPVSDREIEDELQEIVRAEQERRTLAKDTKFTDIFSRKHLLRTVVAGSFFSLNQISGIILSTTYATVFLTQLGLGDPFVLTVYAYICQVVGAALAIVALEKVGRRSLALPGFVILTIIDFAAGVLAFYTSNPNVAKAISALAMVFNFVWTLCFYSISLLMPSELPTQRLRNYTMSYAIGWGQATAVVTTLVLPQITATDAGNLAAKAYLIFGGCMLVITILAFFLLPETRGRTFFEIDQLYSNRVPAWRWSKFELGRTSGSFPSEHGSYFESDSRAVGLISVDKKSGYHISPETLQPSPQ

For `OC[C@H]1O[C@H](OC[C@H]2O[C@H](O[C@]3(CO)O[C@H](CO)[C@@H](O)[C@@H]3O)[C@H](O)[C@@H](O)[C@@H]2O)[C@H](O)[C@@H](O)[C@H]1O` [raffinose], the “inhibition of sucrose uptake” value on Srt1 was “raffinose was the only alternative compound that caused a minor inhibition of sucrose uptake”.
The Km is the substrate concentration at which the rate is half of its maximum. Consider Srt1 (Mycosarcoma maydis), for which, in data set [1], the Km came to 26 ± 4.3 µM.
